ChEMBL document CHEMBL5338754, “Identification of Binding Sites in the Nucleotide-Binding Domain of P-Glycoprotein for a Potent and Nontoxic Modulator, the Amine-Containing Monomeric Flavonoid FM04” (J Med Chem, 2023)

Tests used:
[1] = molecular target: T1, ATP-dependent translocase ABCB1 (Homo sapiens, UniProt P08183); experiment: Negative allosteric modulator activity at P-gp in human LCC6MDR cells overexpressing P-gp assessed as reversal of P-gp mediated paclitaxel resistance activity by measuring relative fold at 1 uM incubated for 5 days by MTS assay; format: cell-based; conditions: 120 h, time 5 day
[2] = molecular target: T1, ATP-dependent translocase ABCB1; experiment: Binding affinity to human P-glycoprotein expressed in LCC6MDR cells assessed as stabilization of protein by measuring fluorescence at 100 uM incubated for 1 hr by Western blotting analysis; format: cell-based
[3] = molecular target: ATP-dependent translocase ABCB1 (Mus musculus, UniProt P06795); experiment: Binding affinity to mouse P-glycoprotein expressed in Pichia pastoris assessed as stabilization of protein by measuring fluorescence at 100 uM incubated for 1 hr by Western blotting analysis
[4] = molecular target: T2, ATP-dependent translocase ABCB1 (Homo sapiens, UniProt P08183, C1227A); experiment: Negative allosteric modulator activity at human P-gp C1227A mutant expressed in HEK293FT cells assessed as reversal of P-gp mediated PTX resistance by measuring sensitivity fold change incubated for 5 days by MTS assay; format: cell-based; conditions: 120 h, time 5 day
[5] = molecular target: T3, ATP-dependent translocase ABCB1 (Homo sapiens, UniProt P08183, T1226W); experiment: Negative allosteric modulator activity at human P-gp T1226W mutant expressed in HEK293FT cells assessed as reversal of P-gp mediated PTX resistance by measuring sensitivity fold change incubated for 5 days by MTS assay; format: cell-based; conditions: 120 h, time 5 day
[6] = molecular target: T4, ATP-dependent translocase ABCB1 (Homo sapiens, UniProt P08183, T1226F); experiment: Negative allosteric modulator activity at human P-gp T1226F mutant expressed in HEK293FT cells assessed as reversal of P-gp mediated PTX resistance by measuring sensitivity fold change incubated for 5 days by MTS assay; format: cell-based; conditions: 120 h, time 5 day
[7] = molecular target: ATP-dependent translocase ABCB1 (Homo sapiens, UniProt P08183, H1195A); experiment: Negative allosteric modulator activity at human P-gp H1195A mutant expressed in HEK293FT cells assessed as increase in intracellular doxorubicin accumulation using doxorubicin as substrate at 1 uM incubated for 150 mins by microplate reader assay (reference value: 78.1 +/- 1.4 %); format: cell-based; conditions: 2.5 h
[8] = molecular target: T5, ATP-dependent translocase ABCB1 (Homo sapiens, UniProt P08183, Q1193F); experiment: Negative allosteric modulator activity at human P-gp Q1193F mutant expressed in HEK293FT cells assessed as increase in intracellular doxorubicin accumulation using doxorubicin as substrate at 1 uM incubated for 150 mins by microplate reader assay (reference value: 64.7 +/- 2.6 %); format: cell-based; conditions: 2.5 h
[9] = molecular target: ATP-dependent translocase ABCB1 (Homo sapiens, UniProt P08183, G1114V); experiment: Negative allosteric modulator activity at human P-gp G1114V mutant expressed in HEK293FT cells assessed as increase in intracellular doxorubicin accumulation using doxorubicin as substrate at 1 uM incubated for 150 mins by microplate reader assay (reference value: 102 +/- 2.6 %); format: cell-based; conditions: 2.5 h
[10] = molecular target: ATP-dependent translocase ABCB1 (Homo sapiens, UniProt P08183, G1114I); experiment: Negative allosteric modulator activity at human P-gp G1114I mutant expressed in HEK293FT cells assessed as increase in intracellular doxorubicin accumulation using doxorubicin as substrate at 1 uM incubated for 150 mins by microplate reader assay (reference value: 94.7 +/- 2.7 %); format: cell-based; conditions: 2.5 h
[11] = molecular target: T3, ATP-dependent translocase ABCB1; experiment: Negative allosteric modulator activity at human P-gp T1226W mutant expressed in HEK293FT cells assessed as increase in intracellular doxorubicin accumulation using doxorubicin as substrate at 1 uM incubated for 150 mins by microplate reader assay (reference value: 66.7 +/- 1.5 %); format: cell-based; conditions: 2.5 h
[12] = molecular target: T4, ATP-dependent translocase ABCB1; experiment: Negative allosteric modulator activity at human P-gp T1226F mutant expressed in HEK293FT cells assessed as increase in intracellular doxorubicin accumulation using doxorubicin as substrate at 1 uM incubated for 150 mins by microplate reader assay (reference value: 67.6 +/- 1.9 %); format: cell-based; conditions: 2.5 h
[13] = molecular target: T1, ATP-dependent translocase ABCB1; experiment: Negative allosteric modulator activity at human wildtype P-gp expressed in HEK293FT cells assessed as fold change in intracellular doxorubicin accumulation using doxorubicin as substrate at 1 uM incubated for 150 mins by microplate reader assay relative to DMSO; format: cell-based; conditions: 2.5 h
[14] = molecular target: ATP-dependent translocase ABCB1 (Homo sapiens, UniProt P08183, I1115A); experiment: Negative allosteric modulator activity at human P-gp I1115A mutant expressed in HEK293FT cells assessed as fold change in intracellular doxorubicin accumulation using doxorubicin as substrate at 1 uM incubated for 150 mins by microplate reader assay relative to DMSO; format: cell-based; conditions: 2.5 h
[15] = molecular target: T2, ATP-dependent translocase ABCB1; experiment: Negative allosteric modulator activity at human P-gp C1227A mutant expressed in HEK293FT cells assessed as fold change in intracellular doxorubicin accumulation using doxorubicin as substrate at 1 uM incubated for 150 mins by microplate reader assay relative to DMSO; format: cell-based; conditions: 2.5 h
[16] = molecular target: T5, ATP-dependent translocase ABCB1; experiment: Negative allosteric modulator activity at human P-gp Q1193F mutant expressed in HEK293FT cells assessed as fold change in intracellular doxorubicin accumulation using doxorubicin as substrate at 1 uM incubated for 150 mins by microplate reader assay relative to DMSO; format: cell-based; conditions: 2.5 h
[17] = molecular target: ATP-dependent translocase ABCB1 (Homo sapiens, UniProt P08183, Q1193N); experiment: Negative allosteric modulator activity at human P-gp Q1193N mutant expressed in HEK293FT cells assessed as fold change in intracellular doxorubicin accumulation using doxorubicin as substrate at 1 uM incubated for 150 mins by microplate reader assay relative to DMSO; format: cell-based; conditions: 2.5 h
[18] = molecular target: ATP-dependent translocase ABCB1 (Homo sapiens, UniProt P08183, I1115K); experiment: Negative allosteric modulator activity at human P-gp I1115K mutant expressed in HEK293FT cells assessed as fold change in intracellular doxorubicin accumulation using doxorubicin as substrate at 1 uM incubated for 150 mins by microplate reader assay relative to DMSO; format: cell-based; conditions: 2.5 h
[19] = molecular target: T3, ATP-dependent translocase ABCB1; experiment: Negative allosteric modulator activity at human P-gp T1226W mutant expressed in HEK293FT cells assessed as fold change in intracellular doxorubicin accumulation using doxorubicin as substrate at 1 uM incubated for 150 mins by microplate reader assay relative to DMSO; format: cell-based; conditions: 2.5 h
[20] = molecular target: ATP-dependent translocase ABCB1 (Homo sapiens, UniProt P08183, Q1193A); experiment: Activation of P-gp ATPase activity in human P-gp Q1193A mutant expressed in HEK293FT cell microsomes at 20 uM incubated for 1 hr in presence of ATP by Glo-luminescence based microplate reader assay (reference value: 0.38 +/- 0.04 pmol/min/microg); design: species or system Microsome
[21] = molecular target: T5, ATP-dependent translocase ABCB1; experiment: Activation of P-gp ATPase activity in human P-gp Q1193F mutant expressed in HEK293FT cell microsomes at 20 uM incubated for 1 hr in presence of ATP by Glo-luminescence based microplate reader assay (reference value: 0.41 +/- 0.06 pmol/min/microg); design: species or system Microsome
[22] = molecular target: ATP-dependent translocase ABCB1 (Homo sapiens, UniProt P08183, Q1193C); experiment: Activation of P-gp ATPase activity in human P-gp Q1193C mutant expressed in HEK293FT cell microsomes assessed as fold change of ATPase activity at 20 uM incubated for 1 hr in presence of ATP by Glo-luminescence based microplate reader assay relative to DMSO; design: species or system Microsome

T5 sequence (P08183 whole entry Q1193F): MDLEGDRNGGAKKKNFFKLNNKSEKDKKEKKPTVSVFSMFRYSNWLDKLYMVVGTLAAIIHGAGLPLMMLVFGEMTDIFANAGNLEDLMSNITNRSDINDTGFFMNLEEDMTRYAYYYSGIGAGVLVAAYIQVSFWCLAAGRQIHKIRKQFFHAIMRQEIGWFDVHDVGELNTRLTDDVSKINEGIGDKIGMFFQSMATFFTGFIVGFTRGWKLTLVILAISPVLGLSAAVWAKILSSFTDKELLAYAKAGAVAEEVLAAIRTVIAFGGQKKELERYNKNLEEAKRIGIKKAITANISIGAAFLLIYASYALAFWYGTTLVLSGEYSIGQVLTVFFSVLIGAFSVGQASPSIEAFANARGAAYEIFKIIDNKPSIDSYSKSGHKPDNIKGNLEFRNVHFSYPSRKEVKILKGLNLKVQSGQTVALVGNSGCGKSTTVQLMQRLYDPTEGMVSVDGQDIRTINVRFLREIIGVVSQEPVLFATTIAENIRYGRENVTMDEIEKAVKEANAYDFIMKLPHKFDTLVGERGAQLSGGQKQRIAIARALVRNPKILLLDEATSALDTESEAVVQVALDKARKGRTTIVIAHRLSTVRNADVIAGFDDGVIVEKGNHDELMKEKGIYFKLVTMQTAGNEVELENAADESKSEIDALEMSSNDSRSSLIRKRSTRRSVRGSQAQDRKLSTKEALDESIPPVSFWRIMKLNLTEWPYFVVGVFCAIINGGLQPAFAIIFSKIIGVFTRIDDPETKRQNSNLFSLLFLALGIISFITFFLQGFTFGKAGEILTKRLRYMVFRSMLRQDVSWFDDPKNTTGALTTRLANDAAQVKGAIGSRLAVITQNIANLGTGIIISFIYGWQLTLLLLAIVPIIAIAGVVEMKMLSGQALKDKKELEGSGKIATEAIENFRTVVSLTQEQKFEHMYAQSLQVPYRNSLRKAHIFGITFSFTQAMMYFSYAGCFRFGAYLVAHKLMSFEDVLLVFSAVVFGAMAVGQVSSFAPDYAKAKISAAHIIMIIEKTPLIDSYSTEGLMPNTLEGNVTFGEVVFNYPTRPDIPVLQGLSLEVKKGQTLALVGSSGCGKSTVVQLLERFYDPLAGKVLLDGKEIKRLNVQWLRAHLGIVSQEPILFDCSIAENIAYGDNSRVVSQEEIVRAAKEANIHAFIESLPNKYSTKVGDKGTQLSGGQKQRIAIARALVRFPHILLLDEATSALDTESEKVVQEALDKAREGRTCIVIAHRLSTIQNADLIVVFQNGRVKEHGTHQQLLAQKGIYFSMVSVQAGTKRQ
T3 sequence (P08183 whole entry T1226W): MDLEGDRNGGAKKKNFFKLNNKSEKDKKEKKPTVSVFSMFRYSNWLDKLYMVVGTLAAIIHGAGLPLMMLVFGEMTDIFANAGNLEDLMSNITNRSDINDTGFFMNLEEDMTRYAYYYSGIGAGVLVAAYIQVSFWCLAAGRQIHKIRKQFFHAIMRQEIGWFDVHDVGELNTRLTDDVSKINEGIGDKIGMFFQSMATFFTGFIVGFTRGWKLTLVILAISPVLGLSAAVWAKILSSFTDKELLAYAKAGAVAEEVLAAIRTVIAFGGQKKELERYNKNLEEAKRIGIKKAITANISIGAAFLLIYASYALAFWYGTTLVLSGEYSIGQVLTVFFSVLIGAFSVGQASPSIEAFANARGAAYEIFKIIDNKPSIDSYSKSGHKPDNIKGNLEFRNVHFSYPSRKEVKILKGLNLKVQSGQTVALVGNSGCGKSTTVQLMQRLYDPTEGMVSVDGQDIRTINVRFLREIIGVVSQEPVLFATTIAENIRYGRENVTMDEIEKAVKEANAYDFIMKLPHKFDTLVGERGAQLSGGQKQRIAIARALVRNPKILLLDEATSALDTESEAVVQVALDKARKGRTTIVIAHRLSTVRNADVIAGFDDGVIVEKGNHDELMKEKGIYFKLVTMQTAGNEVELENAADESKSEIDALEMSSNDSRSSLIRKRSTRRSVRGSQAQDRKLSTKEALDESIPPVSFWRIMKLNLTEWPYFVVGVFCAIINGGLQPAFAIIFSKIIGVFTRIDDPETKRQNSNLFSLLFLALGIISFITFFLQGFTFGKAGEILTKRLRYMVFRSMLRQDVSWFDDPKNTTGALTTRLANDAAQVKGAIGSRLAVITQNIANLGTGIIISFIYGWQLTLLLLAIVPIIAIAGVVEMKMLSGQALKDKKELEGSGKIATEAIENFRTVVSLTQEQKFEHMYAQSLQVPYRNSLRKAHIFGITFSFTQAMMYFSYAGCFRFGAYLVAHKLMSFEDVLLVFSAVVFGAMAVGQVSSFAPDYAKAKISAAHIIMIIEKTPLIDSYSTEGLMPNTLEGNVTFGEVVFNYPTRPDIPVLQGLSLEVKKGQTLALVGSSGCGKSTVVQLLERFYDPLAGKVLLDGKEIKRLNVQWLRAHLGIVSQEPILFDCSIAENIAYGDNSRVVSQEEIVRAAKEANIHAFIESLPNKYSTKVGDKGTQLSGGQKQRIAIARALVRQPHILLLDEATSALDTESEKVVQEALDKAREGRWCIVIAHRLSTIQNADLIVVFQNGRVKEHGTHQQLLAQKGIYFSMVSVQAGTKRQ
T1 sequence (P08183 whole entry): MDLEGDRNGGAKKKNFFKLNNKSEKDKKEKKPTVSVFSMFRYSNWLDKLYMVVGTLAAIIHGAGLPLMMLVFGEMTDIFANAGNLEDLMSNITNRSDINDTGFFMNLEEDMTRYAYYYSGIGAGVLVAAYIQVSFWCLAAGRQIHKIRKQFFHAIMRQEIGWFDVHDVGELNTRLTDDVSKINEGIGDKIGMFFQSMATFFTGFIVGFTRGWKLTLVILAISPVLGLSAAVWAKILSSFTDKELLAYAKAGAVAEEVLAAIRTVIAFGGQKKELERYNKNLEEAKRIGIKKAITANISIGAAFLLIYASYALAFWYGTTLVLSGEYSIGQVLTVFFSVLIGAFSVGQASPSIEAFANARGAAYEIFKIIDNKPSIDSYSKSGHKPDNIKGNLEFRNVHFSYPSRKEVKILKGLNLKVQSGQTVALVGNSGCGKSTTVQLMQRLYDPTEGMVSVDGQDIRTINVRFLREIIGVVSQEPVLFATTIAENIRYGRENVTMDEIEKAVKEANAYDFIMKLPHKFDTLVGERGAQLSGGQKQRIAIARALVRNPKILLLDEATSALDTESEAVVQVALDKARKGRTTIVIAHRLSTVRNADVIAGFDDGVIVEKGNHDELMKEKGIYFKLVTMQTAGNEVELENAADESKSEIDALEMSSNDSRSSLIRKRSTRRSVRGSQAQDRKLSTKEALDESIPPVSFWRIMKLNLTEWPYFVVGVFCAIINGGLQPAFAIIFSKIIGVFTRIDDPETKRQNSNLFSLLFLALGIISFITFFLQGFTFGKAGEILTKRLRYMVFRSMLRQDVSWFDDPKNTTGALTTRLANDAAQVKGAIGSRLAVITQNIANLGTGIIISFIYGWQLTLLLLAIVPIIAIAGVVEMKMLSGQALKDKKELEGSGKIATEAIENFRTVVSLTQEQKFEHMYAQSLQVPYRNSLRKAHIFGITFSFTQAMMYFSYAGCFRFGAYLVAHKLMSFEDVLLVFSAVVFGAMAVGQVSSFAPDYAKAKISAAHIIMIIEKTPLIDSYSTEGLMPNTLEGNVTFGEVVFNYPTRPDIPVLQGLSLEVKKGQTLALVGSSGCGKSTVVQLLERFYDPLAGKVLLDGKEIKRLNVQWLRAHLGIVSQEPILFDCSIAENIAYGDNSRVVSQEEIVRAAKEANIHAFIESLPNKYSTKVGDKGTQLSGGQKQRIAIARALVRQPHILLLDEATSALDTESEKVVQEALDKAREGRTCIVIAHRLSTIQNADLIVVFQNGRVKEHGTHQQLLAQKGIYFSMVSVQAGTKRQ
T2 sequence (P08183 whole entry C1227A): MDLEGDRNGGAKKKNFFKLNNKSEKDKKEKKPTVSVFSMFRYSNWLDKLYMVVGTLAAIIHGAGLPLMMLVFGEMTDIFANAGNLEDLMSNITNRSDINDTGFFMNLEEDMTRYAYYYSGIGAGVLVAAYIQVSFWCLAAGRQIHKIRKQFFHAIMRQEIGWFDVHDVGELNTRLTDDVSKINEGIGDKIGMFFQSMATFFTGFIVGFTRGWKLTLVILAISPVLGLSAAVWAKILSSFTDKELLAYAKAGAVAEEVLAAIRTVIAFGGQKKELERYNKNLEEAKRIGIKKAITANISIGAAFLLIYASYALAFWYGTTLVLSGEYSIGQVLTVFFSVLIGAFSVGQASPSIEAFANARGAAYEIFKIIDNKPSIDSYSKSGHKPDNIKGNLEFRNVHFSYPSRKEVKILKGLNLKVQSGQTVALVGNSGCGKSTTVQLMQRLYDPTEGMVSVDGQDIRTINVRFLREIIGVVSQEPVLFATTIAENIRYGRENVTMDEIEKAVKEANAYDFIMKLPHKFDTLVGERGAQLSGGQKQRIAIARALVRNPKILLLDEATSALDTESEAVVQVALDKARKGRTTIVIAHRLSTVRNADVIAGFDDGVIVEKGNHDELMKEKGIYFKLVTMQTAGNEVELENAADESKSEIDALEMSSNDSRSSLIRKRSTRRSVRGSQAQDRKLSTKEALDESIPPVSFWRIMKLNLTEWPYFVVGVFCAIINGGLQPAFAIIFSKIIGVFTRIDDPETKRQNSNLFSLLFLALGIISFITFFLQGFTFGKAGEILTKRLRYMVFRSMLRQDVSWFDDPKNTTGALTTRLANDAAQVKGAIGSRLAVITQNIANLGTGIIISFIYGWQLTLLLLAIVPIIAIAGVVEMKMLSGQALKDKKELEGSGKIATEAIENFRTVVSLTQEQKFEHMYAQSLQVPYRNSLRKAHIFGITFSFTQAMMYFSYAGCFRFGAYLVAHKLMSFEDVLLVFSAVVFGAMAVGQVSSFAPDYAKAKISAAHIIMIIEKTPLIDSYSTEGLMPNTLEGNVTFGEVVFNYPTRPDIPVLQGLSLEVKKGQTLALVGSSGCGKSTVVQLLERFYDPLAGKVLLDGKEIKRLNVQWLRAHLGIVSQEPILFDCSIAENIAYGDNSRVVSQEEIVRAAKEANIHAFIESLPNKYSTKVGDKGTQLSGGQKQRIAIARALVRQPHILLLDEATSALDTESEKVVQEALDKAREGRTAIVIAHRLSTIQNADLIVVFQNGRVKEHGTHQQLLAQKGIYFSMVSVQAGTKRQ

O=c1cc(-c2ccc(OCCOCCNCc3ccccc3)cc2)oc2ccccc12
fold change (FC) [1]: 34.1 | Activity [2]: Active | Activity [3]: Not Active | fold change (FC) [4]: 67.7 | fold change (FC) [5]: 56.8 | fold change (FC) [6]: 59.4 | Activity [7]: 83.9% | Activity [8]: 74.6% | Activity [9]: 102.5% | Activity [10]: 98.9% | Activity [11]: 102.4% | Activity [12]: 100.3% | fold change (FC) [13]: 1.9 | fold change (FC) [14]: 1 | fold change (FC) [15]: 1.3 | fold change (FC) [16]: 1.2 | fold change (FC) [17]: 1.5 | fold change (FC) [18]: 1 | fold change (FC) [19]: 1.5 | Activity [20]: 0.42 pmol/min/µg | Activity [21]: 0.45 pmol/min/µg | fold change (FC) [22]: 1.3
